Data on three molecules can be found in PMC6434083, “Identification and characterization of two types of amino acid-regulated acetyltransferases in actinobacteria” (Bioscience Reports, 2017).

The term Km denotes the concentration of substrate that gives half-maximal velocity. For orientation: kcat means the number of substrate molecules converted per active site and unit of time at saturation. As a reminder, the kcat/Km is the second-order rate constant that governs catalysis at low substrate concentration.

Series [1] deals with T1, SvePatA (Streptomyces venezuelae, UniProt F2RA54, K112A).
T1 construct: gene SVEN_0867; gene amplified from genomic DNA, pET-28a, E. coli BL21-DE3, purified; ACT-GNAT domains
The series can be described thus: acetyltransferase activity with Asn. Type of series: biochemical. The following applies: allosteric; co-substrates Ac-CoA and SveAcs.

Series [2] has as its target T2, SvePatA (Streptomyces venezuelae, UniProt F2RA54).
T2 construct: gene SVEN_0867; gene amplified from genomic DNA, pET-28a, E. coli BL21-DE3, purified; ACT-GNAT domains
T2 sequence (F2RA54 1-488): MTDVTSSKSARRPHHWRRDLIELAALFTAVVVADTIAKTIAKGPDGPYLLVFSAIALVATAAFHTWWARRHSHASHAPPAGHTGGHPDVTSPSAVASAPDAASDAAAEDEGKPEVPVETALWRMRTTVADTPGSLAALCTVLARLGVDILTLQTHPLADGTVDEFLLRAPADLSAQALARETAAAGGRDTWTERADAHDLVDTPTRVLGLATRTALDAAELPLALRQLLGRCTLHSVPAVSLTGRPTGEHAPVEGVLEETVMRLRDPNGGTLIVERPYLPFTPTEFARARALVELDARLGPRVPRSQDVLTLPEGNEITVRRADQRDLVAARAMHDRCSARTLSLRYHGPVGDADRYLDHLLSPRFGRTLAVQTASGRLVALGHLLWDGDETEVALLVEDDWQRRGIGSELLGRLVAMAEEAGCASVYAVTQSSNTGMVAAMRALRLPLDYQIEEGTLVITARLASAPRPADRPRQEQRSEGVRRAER
Briefly: coupled NADH assay, initial rate; CD shift also seen with […] Asn. Type of series: biochemical. The following applies: allosteric activator; co-substrates Ac-CoA and SveAcs.

The next series deals with T3, AmiPatA (Actinosynnema mirum, UniProt C6WC99).
T3 construct: gene Amir_5672; gene amplified from genomic DNA, pET-28a, E. coli BL21-DE3, purified; ACT-GNAT domains
T3 sequence (C6WC99 1-372): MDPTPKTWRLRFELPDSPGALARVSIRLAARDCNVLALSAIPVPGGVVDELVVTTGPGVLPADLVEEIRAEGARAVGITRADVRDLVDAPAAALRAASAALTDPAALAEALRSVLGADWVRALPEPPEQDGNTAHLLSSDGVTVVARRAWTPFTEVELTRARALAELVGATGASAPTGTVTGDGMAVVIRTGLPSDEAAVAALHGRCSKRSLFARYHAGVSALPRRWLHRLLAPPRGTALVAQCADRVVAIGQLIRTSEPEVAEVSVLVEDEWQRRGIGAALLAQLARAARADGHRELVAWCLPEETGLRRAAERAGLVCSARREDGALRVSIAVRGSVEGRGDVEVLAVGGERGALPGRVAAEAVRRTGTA
Briefly: coupled NADH assay, initial rate; CD shift also seen. Format: biochemical. The following applies: allosteric activator, ACT domain; co-substrates Ac-CoA and AmiAcs.

Substrate in the series “purified protein”: CC(=O)SCCNC(=O)CCNC(=O)[C@H](O)C(C)(C)COP(=O)(O)OP(=O)(O)OC[C@H]1O[C@@H](n2cnc3c(N)ncnc32)[C@H](O)[C@@H]1OP(=O)(O)O
Briefly: purified protein. Type of series: biochemical, Actinosynnema mirum. The following applies: co-substrate AmiAcs; no Cys.

T1 sequence (F2RA54 entry or part of it K112A): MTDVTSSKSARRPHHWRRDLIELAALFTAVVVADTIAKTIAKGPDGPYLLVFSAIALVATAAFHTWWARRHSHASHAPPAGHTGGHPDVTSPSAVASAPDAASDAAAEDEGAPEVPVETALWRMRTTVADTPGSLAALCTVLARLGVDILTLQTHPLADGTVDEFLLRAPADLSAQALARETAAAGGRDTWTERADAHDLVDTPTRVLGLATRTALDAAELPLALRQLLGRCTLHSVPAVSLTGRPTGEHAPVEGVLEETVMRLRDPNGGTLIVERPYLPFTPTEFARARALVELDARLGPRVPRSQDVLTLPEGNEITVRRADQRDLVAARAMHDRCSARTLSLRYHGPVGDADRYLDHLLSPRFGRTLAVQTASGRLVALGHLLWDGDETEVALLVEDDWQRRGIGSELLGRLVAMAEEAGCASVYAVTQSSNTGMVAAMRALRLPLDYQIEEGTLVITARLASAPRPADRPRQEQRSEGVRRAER

As to `NC(=O)C[C@H](N)C(=O)O` [Asn], the activation still observed result on SvePatA [1] was “Allosteric effect of Asn on SvePatA activity was still observed in two mutants K112A”. The “% of initial rate without Asn (2.23 to 3.92 nmol NADH per min/ml)” value on SvePatA [2] was 176%.
`N[C@@H](CS)C(=O)O` [Cys]: at AmiPatA, the “% of initial rate without Cys (3.8 to 6.8 μM/min)” value was found to be 179%.

B1: AmiPatA (Actinosynnema mirum DSM 43827) (protein)
chain: MDPTPKTWRLRFELPDSPGALARVSIRLAARDCNVLALSAIPVPGGVVDELVVTTGPGVLPADLVEEIRAEGARAVGITRADVRDLVDAPAAALRAASAALTDPAALAEALRSVLGADWVRALPEPPEQDGNTAHLLSSDGVTVVARRAWTPFTEVELTRARALAELVGATGASAPTGTVTGDGMAVVIRTGLPSDEAAVAALHGRCSKRSLFARYHAGVSALPRRWLHRLLAPPRGTALVAQCADRVVAIGQLIRTSEPEVAEVSVLVEDEWQRRGIGAALLAQLARAARADGHRELVAWCLPEETGLRRAAERAGLVCSARREDGALRVSIAVRGSVEGRGDVEVLAVGGERGALPGRVAAEAVRRTGTA
notes: gene amplified from genomic DNA, pET-28a, E. coli BL21-DE3, purified; ACT-GNAT domains
In the case of B1, in the series “purified protein”, the Michaelis constant (Km) is 5.5 ± 1.1 µM, the kcat was determined as 0.19 ± 0.008 s⁻¹ and the kcat/Km came out at 36000 ± 8000 M⁻¹ s⁻¹.
